Values quoted from earlier work, collected in publication PMC7845544 (Frontiers in Pharmacology, 2021).

Assays:
[1] = test system: human FSHR; design: method as in Gerrits et al., 2016; conditions: ref Gerrits et al., 2016; read-out: human FSHR-AA EC50; cited from earlier work
[2] = biological target: TSH receptor; design: method as in Gerrits et al., 2016; conditions: ref Gerrits et al., 2016, cited from earlier work
[3] = test system: monkeys; design: method as in Gerrits et al., 2016; conditions: ref Gerrits et al., 2016, cited from earlier work
[4] = test system: women; design: method as in Gerrits et al., 2016; conditions: up to 40 mg/day; ref Gerrits et al., 2016; cited from earlier work
[5] = design: method as in Ghobadi et al., 2009; conditions: ref Ghobadi et al., 2009; cited from earlier work

Structure (SMILES) | EC50 [1] | EC50 ([2]; read-out: TSH receptor EC50) | TSHR/FSHR [2] | dose for thyroid follicular cell hypertrophy [3] | fold separation between ovarian and thyroid stimulation [3] | dose required for folliculogenesis ([3]; twice daily) | follicular growth in human phase one study [4] | elimination from blood [5]
COc1cc2c(cc1CC(C)C)-c1c(-c3cccs3)cc(C(=O)N(C)C(C)(C)C)n1CC2 [MK-8389] | 4.2 nM | 340 nM | 81 | 23 mg/kg | 10 fold | 2.25 mg/kg | failed to induce follicular growth | –
CCN(CC)CCOc1ccc(C(=C(Cl)c2ccccc2)c2ccccc2)cc1 [clomiphene] | – | – | – | – | – | – | – | ≥ 72 h
